From paper PMC6196722 (Xenobiotica; the fate of foreign compounds in biological …, 2017)

Assays:
[1] = target: SULT1B1-WT (6xHis tagged) (Homo sapiens, UniProt O43704, L145V); experiment: intrinsic fluorescence titration; type: binding
[2] = target: SULT1B1-WT (6xHis tagged) (Homo sapiens, UniProt O43704); experiment: intrinsic fluorescence titration; type: binding
SULT1B1-WT (6xHis tagged) (Homo sapiens, UniProt O43704), sequence (O43704 whole entry): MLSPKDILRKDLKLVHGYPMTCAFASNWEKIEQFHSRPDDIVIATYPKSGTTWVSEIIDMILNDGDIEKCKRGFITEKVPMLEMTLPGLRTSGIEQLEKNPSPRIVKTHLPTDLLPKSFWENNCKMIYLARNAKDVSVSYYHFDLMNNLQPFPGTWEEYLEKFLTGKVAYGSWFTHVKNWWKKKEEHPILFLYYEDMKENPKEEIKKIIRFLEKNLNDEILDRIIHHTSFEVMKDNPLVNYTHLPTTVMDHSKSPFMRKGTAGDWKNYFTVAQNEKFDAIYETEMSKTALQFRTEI

SULT1B1-WT (6xHis tagged) (Homo sapiens, UniProt O43704, L145V), sequence (O43704 whole entry L145V): as the sequence (O43704 whole entry) above, with L145V counted along it

Kd [1] | Kd [2] | Compound
405 nM |  | Nc1ncnc2c1ncn2[C@@H]1O[C@H](COP(=O)(O)O)[C@@H](OP(=O)(O)O)[C@H]1O [PAP]
980 nM | 872 nM | Nc1ncnc2c1ncn2[C@@H]1O[C@H](COP(=O)(O)OS(=O)(=O)O)[C@@H](OP(=O)(O)O)[C@H]1O [PAPS]
